Measurements reported in article PMC12682947, “Identification of New KCNT1‐Epilepsy Drugs by In Silico, Cell, and Drosophila Modeling” (Annals of Neurology, 2025).

What was measured:
[1] = system: Drosophila epilepsy model; design: method as in PMID 39720593; settings: cited from earlier work
[2] = system: Drosophila mutant KCNT1 lines (G288S, R398Q, R928C); design: method as in PMID 38336906; settings: Drosophila models of KCNT1 epilepsy; cited from earlier work
[3] = system: Drosophila mutant KCNT1 lines (G288S, R398Q, R928C); assay: Bang-sensitive behavioral seizure assay, statements for all three Drosophila mutant KCNT1 lines; type: in vivo, Drosophila melanogaster; settings: drug in food, 1 nM to 1 μM, each of the three mutant lines
Excerpt: The Drosophila melanogaster lines carrying the WT human KCNT1 transgene (NM_020822_3) or KCNT1 mutant G288S, R398Q or R928C transgene placed downstream of the yeast UAS promoter, have been described previously.[11] WT or mutant human UAS‐KCNT1 flies were crossed to flies expressing the GAL4 transcriptional activator under the control of the GAD1 promoter (GABAergic driver, Bloomington stock number 51630 P2) to drive expression of KCNT1 in GABAergic neurons, involved in neuronal inhibition.[11]
The bang‐sensitive behavioral assay (also known as the banging assay) was used to test for the presence of a seizure phenotype in Drosophila.[11], [30] Experiments were performed and scored, as previously described,[11] with a minimum of 50 Drosophila tested for each genotype and drug concentration.
Four drugs were selected for in vivo analysis to determine their effects on the seizure phenotypes in transgenic Drosophila lines with human mutant KCNT1 channels. Bepridil, a nonselective KCNT1 inhibitor was included for comparison. Drosophila food with and without drugs was prepared as previously described.[11] All chemicals were obtained from Sigma‐Aldrich (Gillingham, UK) apart from antrafenine hydrochloride (Toronto Research Chemicals, Canada) and regorafenib (USP, Germany).
Drosophila crosses were set up, and the resulting embryos were collected, as previously described.[11] A range of concentrations of each drug dissolved in Drosophila food, between 0.001 μM and 1 μM, were used in the experiments. Multiple replicates were performed for each dosage of the drugs and controls. Controls were vehicle controlled (VC), which was the normal food with just the solvent ethanol present (1 μl/1 ml) in the Drosophila food, and normal food (NF) control where no drug or solvent (ethanol) was added in the Drosophila food.
In all experiments, experimenters were not blinded to variants or treatments, nor were samples randomly assigned to groups. Sample sizes were not calculated in advance and no data were excluded from the analysis. Data were analyzed using GraphPad Prism 9 software (San Diego, CA, USA). All values are reported as mean ± standard error of the mean (SEM). All data passed normality and lognormality Shapiro–Wilk tests, determined by GraphPad Prism 9. In the experiments analyzing the effects of drugs in Drosophila, statistical significance of differences between groups was determined using Brown‐Forsythe and Welch's analysis of variance (ANOVA) tests (Supplementary Table S3), assuming non‐equal SDs, followed by Dunnett's multiple comparisons tests (GraphPad Prism 9). The results of the Dunnett's multiple comparisons tests are shown in Supplementary Table S4, where “N” represents independent trials using independent fly crosses, with the total number of flies for each condition shown in brackets.

SMILES | reduction of seizures [1] | further results
Nc1nnc(-c2cccc(Cl)c2Cl)c(N)n1 [lamotrigine] | approximately 30% | –
C=C[C@H]1C[N@@]2CC[C@H]1C[C@@H]2[C@@H](O)c1ccnc2ccc(OC)cc12 [quinidine] | – | effect on seizure phenotype (in words) [2]: exacerbate the seizure phenotype
CCCC(CCC)C(=O)O [valproate] | approximately 30% | –
O=C1NC(=O)C(c2ccccc2)(c2ccccc2)N1 [Phenytoin] | approximately 30% | –
CC(C)COCC(CN(Cc1ccccc1)c1ccccc1)N1CCCC1 (centres unmarked) [bepridil] | – | effect on seizure activity (in words) [3]: exacerbate the seizure phenotype
